Experimental data published in publication PMC8112869, “Therapeutic inhibition of keratinocyte TRPV3 sensory channel by local anesthetic dyclonine” (eLife, 2021).

Key:
[1] = tested on: T-Rex 293 cells expressing TRPV3 G573S; assay: Cell death analysis by flow cytometry (propidium iodide), cells expressing G573S mutant; type: cell-based, Homo sapiens
Method: (§1) T-Rex 293 cells were grown in DMEM containing 4.5 mg/ml glucose, 10% (vol/vol) FBS, 50 units/ml penicillin, 50 μg/ml streptomycin, and blasticidin S (10 μg/ml), and were incubated at 37°C in a humidified incubator gassed with 5% CO2. Transfections were performed in wells of a 24-well plate using lipofectamine 2000 (Invitrogen). […] Expression of GFP fluorescence detected by an epifluorescence microscope was used as an indicator of gene expression. After treatments with the compounds for 12 hr, cells were collected, washed twice with PBS, resuspended, and then dyed with propidium iodide (PI, Thermo Fisher Scientific) in the dark according to the manufacturer’s instructions. The membrane integrity of the cells was assessed using a BD FACSCelesta flow cytometer equipped with BD Accuri C6 software (BD Biosciences, USA).

[2] = tested on: T-Rex 293 cells expressing TRPV3 G573C; assay: Cell death analysis by flow cytometry (propidium iodide), cells expressing G573C mutant; type: cell-based, Homo sapiens
Method: as §1

[3] = tested on: T-Rex 293 cells expressing WT TRPV3; assay: Cell death analysis by flow cytometry (propidium iodide), cells expressing WT TRPV3; type: cell-based, Homo sapiens
Method: as §1

mouse TRPV3 = target: T1, mouse TRPV3 (Mus musculus, UniProt Q8K424); assay: Single-channel inside-out patch recording of TRPV3 from HEK 293T cells; type: cell-based; set-up: expressed in transfected cells; host or cells: HEK 293T
T1 sequence (Q8K424 1-791): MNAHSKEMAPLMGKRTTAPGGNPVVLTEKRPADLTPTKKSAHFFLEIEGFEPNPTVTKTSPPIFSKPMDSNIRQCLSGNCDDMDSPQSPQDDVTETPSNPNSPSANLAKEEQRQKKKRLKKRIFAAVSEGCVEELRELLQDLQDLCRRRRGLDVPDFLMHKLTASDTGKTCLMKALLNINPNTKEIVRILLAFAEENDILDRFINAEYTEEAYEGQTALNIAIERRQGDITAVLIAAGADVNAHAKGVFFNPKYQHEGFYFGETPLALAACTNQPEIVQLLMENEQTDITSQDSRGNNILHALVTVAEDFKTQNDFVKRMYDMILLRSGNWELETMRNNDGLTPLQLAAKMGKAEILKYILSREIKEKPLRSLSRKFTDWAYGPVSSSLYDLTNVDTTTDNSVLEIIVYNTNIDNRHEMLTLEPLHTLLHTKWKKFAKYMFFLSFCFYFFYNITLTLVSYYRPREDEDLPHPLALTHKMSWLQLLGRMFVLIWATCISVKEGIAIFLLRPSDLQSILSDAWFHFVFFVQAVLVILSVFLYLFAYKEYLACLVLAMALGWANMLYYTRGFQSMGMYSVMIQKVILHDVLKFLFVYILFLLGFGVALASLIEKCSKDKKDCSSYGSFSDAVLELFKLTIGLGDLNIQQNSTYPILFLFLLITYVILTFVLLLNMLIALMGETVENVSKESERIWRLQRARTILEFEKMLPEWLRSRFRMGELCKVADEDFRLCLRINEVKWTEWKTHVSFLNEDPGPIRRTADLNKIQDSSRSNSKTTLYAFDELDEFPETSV
Text: Conventional whole-cell and excised patch-clamp recording methods were used. For the recombinant expressing system, green fluorescent EGFP was used as a surface marker for gene expression. Recording pipettes were pulled from borosilicate glass capillaries (World Precision Instruments) and fire-polished to a resistance between 2 and 4 MΩ when filled with internal solution containing (in mM) 140 CsCl, 2.0 MgCl2, 5 EGTA, and 10 HEPES, pH 7.4 (adjusted with CsOH). Bath solution contained (in mM): 140 NaCl, 5 KCl, 3 EGTA, and 10 HEPES, pH 7.4 adjusted with NaOH. For recordings in keratinocytes, the bath saline consisted of (in mM) 140 NaCl, 5 KCl, 2 MgCl2, 2 CaCl2, 10 glucoses, and 10 HEPES, pH 7.4 adjusted with NaOH, and the pipette solution contained (in mM) 140 CsCl, 5 EGTA, and 10 HEPES, pH 7.3 adjusted with CsOH. For single-channel recordings, the pipette solution and bath solution were symmetrical and contained (in mM) 140 NaCl, 5 KCl, 3 EGTA, and 10 HEPES, pH 7.4. Isolated cells were voltage clamped and held at –60 mV using an EPC10 amplifier with the Patchmaster software (HEKAElectronics, Lambrecht, Germany). For a subset of recordings, currents were amplified using an Axopatch 200B amplifier (Molecular Devices, Sunnyvale, CA) and recorded through a BNC-2090/MIO acquisition system (National Instruments, Austin, TX) using QStudio developed by Dr. Feng Qin at State University of New York at Buffalo. Whole-cell recordings were typically sampled at 5 kHz and filtered at 1 kHz, and single-channel recordings were sampled at 25 kHz and filtered at 10 kHz. The compensation of pipette series resistance and capacitance was compensated using the built-in circuitry of the amplifier (>80%) to reduce voltage errors. Exchange of external solution was performed using a gravity-driven local perfusion system. As determined by the conductance tests, the solution around a patch under study was fully controlled by the application of a flow rate of 100 μl/min or greater. Dyclonine hydrochloride, MTSET and carvacrol were purchased from MCE (MedChemExpress). Unless otherwise noted, all chemicals were purchased from Sigma (Millipore Sigma, St. Louis, MO). Water-insoluble reagents were dissolved in pure ethanol or DMSO to make a stock solution and diluted into the recording solution at the desired final concentrations before the experiment. […] In the scratching behavior experiments, carvacrol was first dissolved in 10% ethanol and then diluted in normal saline before administration. All experiments except those for heat activation were performed at room temperature (22–24℃).

[4] = dyclonine (50 μM) or 2-APB (30 μM) alone, averaged from seven experiments
[5] = dyclonine (50 μM) added to 2-APB (30 μM), averaged

| unitary conductance (mouse TRPV3; 10 μM 2-APB with 30 μM dyclonine) [pS] | single-channel open probability (mouse TRPV3; 30 μM dyclonine with 10 μM 2-APB, +60 mV) | single-channel open probability (mouse TRPV3; 30 μM dyclonine with 10 μM 2-APB, –60 mV) | Structure (SMILES) | cell death ratio [1, 4] | cell death ratio [2, 4] | cell death ratio ([3]; 2-APB (30 μM) alone, 12 hr, averaged from seven experiments) | unitary conductance (mouse TRPV3; 10 μM 2-APB before dyclonine treatment) [pS] | single-channel open probability (mouse TRPV3; 10 μM 2-APB without dyclonine, +60 mV) | single-channel open probability (mouse TRPV3; 10 μM 2-APB without dyclonine, –60 mV) | cell death ratio [1, 5] | cell death ratio [2, 5] | cell death ratio [3, 5] |
| --- | --- | --- | --- | --- | --- | --- | --- | --- | --- | --- | --- | --- |
| – | – | – | NCCOB(c1ccccc1)c1ccccc1 [2-APB, 2-aminoethoxydiphenyl borate] | 53.60% ± 5.88% | 47.91% ± 5.54% | 43.73% ± 3.46% | 163.6 ± 6.4 | 0.82 ± 0.02 | 0.8 ± 0.02 | – | – | – |
| 179.2 ± 5.5 | 0.12 ± 0.01 | 0.08 ± 0.01 | CCCCOc1ccc(C(=O)CCN2CCCCC2)cc1 [dyclonine] | 12.45% ± 2.54% | 14.98% ± 4.40% | – | – | – | – | 17.68% ± 5.66% | 13.85% ± 2.49% | 9.12% ± 1.42% |
